Measurements from article PMC5923120, “Acylhydrazones as Antifungal Agents Targeting the Synthesis of Fungal Sphingolipids” (Antimicrobial Agents and Chemotherapy, 2018).
pIC50: −log10 of the molar value. Converted amounts (≈) assume the structure as drawn. Where two headings read alike, the source gives them in different places.

Key:
[1] = in vitro; conditions: human, microsomes; for remaining at 0 h, 2 μM: % remaining at 0 min; for remaining at 0.25 h, 2 μM: % remaining at 15 min; for remaining at 0.5 h, 2 μM: % remaining at 30 min; for remaining at 0.75 h, 2 μM: % remaining at 45 min; for remaining at 1 h, 2 μM: % remaining at 60 min
Experimental: (§2) To test for metabolic stability, 40 μl of 10 mM NADPH solution was added to each well of a 96-well plate. The final concentration of NADPH was 1 mM. The mixture was prewarmed at 37°C for 5 min. The negative-control samples were prepared by replacing NADPH solutions with 40 μl of ultrapure H2O. The negative control was used to exclude the misleading factor that resulted from the instability of the chemical itself. Samples with NADPH were prepared in duplicate. Negative controls were prepared in singlet. The reaction was started with the addition of 4 μl of 200 μM control compound or test compound solutions. […] An aliquot of 90 μl of the supernatant was mixed with 90 μl of ultrapure H2O and then used for LC-MS/MS analysis.

[2] = in vitro; conditions: monkey
Excerpt: A commercially available kit was used to examine permeability through the blood-brain barrier (BBB kit MBT-24; Pharmaco Cell Co. Ltd.). This kit allows us to perform a permeability assay using an in vitro reproduction of the blood-brain barrier using monkey brain. Briefly, in a 12-well plate there is a triple culture, with endothelial cells in the luminal part and perycites and astrocytes in the abluminal side connected by tight junctions. The luminal side of the well represents the blood side, whereas the abluminal side represents the brain side. The integrity of the blood-brain barrier is assessed by the measurement of TEER, which indicates the formation of tight junctions. To have an efficient system, the TEER should be >150 Ω cm^2. The kit is kept frozen at −80°C until it is ready to use. […] After that it takes 3 days for the cells to adjust, and then the plate can be used in 4 days for the experiment. For drug testing, after assessing the TEER, the drugs were added in the chosen medium at the desired concentrations and at different time points. At the end of each time point the TEER was measured to assess if the BBB was still intact. After that the medium was collected and subjected to MS to measure the concentration of the samples in the brain side and calculate the permeability value (Papp).

[3] = test system: C. neoformans; assay: Mouse model of cryptococcosis; type: in vivo, mice; conditions: for mice that survived: treatment immediately after intranasal infection, 40 days
[4] = biological target: human ether-a-go-go-related gene (hERG) potassium channel (Homo sapiens, UniProt Q12809); assay: hERG patch clamp assay; type: cell-based
[5] = test system: Caco-2 cell line; assay: Caco-2 permeability; conditions: human, Caco-2, 2 h, 5 μM, pH 7.4
Experimental: (§3) The Caco-2 permeability studies were performed as follows. (i) For the preparation of Caco cells, 50-μl and 25-ml volumes of cell culture medium were added to each well of the Transwell insert and reservoir, respectively. The HTS Transwell plates then were incubated at 37°C, 5% CO2 for 1 h before cell seeding. […] (ii) For the preparation of stock solutions, 10 mM stock solutions of test compounds were prepared in DMSO. The stock solutions of positive controls were prepared in DMSO at a concentration of 10 mM. Digoxin and propranolol were used as control compounds in this assay. (iii) For the assessment of cell monolayer integrity, medium was removed from the reservoir and each Transwell insert and replaced with prewarmed fresh culture medium. Transepithelial electrical resistance (TEER) across the monolayer was measured using a Millicell epithelial volt-Ohm measuring system (Millipore, USA). The plate was returned to the incubator once the measurement was done. The TEER value was calculated according to the following equation: TEER measurement (ohms) × area of membrane (cm^2) = TEER value (ohm · cm^2). The TEER value should be greater than 230 Ω · cm^2, which indicates a well-qualified Caco-2 monolayer. (iv) The assay was performed as follows. The Caco-2 plate was removed from the incubator and washed twice with prewarmed Hanks' balanced salt solution (HBSS; with 10 mM HEPES, pH 7.4) and then incubated at 37°C for 30 min. The stock solutions of control compounds were diluted in DMSO to get 1 mM solutions and then diluted with HBSS (10 mM HEPES, pH 7.4) to get 5 μM working solutions. The stock solutions of the test compounds were diluted in DMSO to get 1 mM solutions and then diluted with HBSS (10 mM HEPES, pH 7.4) to get 5 μM working solutions. The final concentration of DMSO in the incubation system was 0.5%. To determine the rate of drug transport in the apical to basolateral direction, 75 μl of 5 μM working solution of test compound was added to the Transwell insert (apical compartment), and the wells in the receiver plate (basolateral compartment) were filled with 235 μl of HBSS (10 mM HEPES, pH 7.4). To determine the rate of drug transport in the basolateral to apical direction, 235 μl of 5 μM working solution of test compound was added to the receiver plate wells (basolateral compartment), and then the Transwell inserts (apical compartment) were filled with 75 μl of HBSS (10 mM HEPES, pH 7.4). Time zero samples were prepared by transferring 50 μl of 5 μM working solution to wells of the 96-deep-well plate, followed by the addition of 200 μl cold acetonitrile or methanol containing appropriate IS. The plates were incubated at 37°C for 2 h. At the end of the incubation, 50-μl samples from donor sides (apical compartment for AP→BL flux and basolateral compartment for BL→AP) and receiver sides (basolateral compartment for AP→BL flux and apical compartment for BL→AP) were transferred to wells of a new 96-well plate, followed by the addition of 4 volumes of cold acetonitrile or methanol containing appropriate IS. […] An aliquot of 100 μl of the supernatant was mixed with an appropriate volume of ultrapure water before LC-MS/MS analysis. To determine the Lucifer yellow leakage after a 2-h transport period, a stock solution of Lucifer yellow was prepared in ultrapure water and diluted with HBSS (10 mM HEPES, pH 7.4) to reach a final concentration of 100 μM. One hundred microliters of the Lucifer yellow solution was added to each Transwell insert (apical compartment), followed by filling the wells in the receiver plate (basolateral compartment) with 300 μl of HBSS (10 mM HEPES, pH 7.4). The plates were incubated at 37°C for 30 min, and 80-μl samples were removed directly from the apical and basolateral wells (using the basolateral access holes) and transferred to wells of new 96-well plates.

[6] = Caco-2 permeability; conditions: human; for Papp A→B at 2 h, 5 μM / Papp B→A at 2 h, 5 μM: Caco-2, pH 7.4
Experimental: as §3

[7] = test system: C. neoformans; assay: In vitro susceptibility testing (MIC80); type: cell-based, Cryptococcus neoformans
Experimental: MICs were determined by following the methods of the Clinical and Laboratory Standards Institute (CLSI), with modifications. […] The compounds were serially diluted from 32 to 0.03 μg/ml in a 96-well plate. The inoculum was prepared as described in CLSI protocol M27A3 guidelines ([39]). […] The MICs were determined as the lowest concentration of the compound that inhibited 80% of growth compared to the control.

[8] = test system: Aspergillus fumigatus; assay: Mouse model of invasive pulmonary aspergillosis; type: in vivo, mice; conditions: oral 20 mg/kg/day; for lung fungal burden (CFU) of surviving mice: at the endpoint, data not shown; for mice that survived: immunosuppressed mice, after 15 days
Experimental: For survival study, 8-week-old CBA/J (Envigo) male mice were used. They were divided into sets of 10 mice for each treatment or control group. The day prior to infection, the mice were immunosuppressed by using triamcinolone acetonide (1 mg/mouse) subcutaneously ([40]). On day 0, mice were infected intranasally with 20 μl of a suspension containing 2 × 10^4 conidia of A. fumigatus strain Af293 and were treated through gavage with 20 mg/kg/day of BHBM, D13, or voriconazole (as a drug control) in a final volume of 100 μl of 30% PEG in saline buffer. The untreated control group mice received 100 μl of 30% PEG in saline buffer. Mice were fed ad libitum and were given 50% grapefruit juice in place of normal drinking water to avoid the liver metabolism of the drugs ([41]). Mice were monitored every day for discomfort and sacrificed subsequently.

[9] = test system: HepG2; assay: In vitro toxicity (MTT), HepG2; type: cell-based; conditions: Homo sapiens, cytotoxicity
Experimental: (§1) The murine macrophage cell line J774 and human cancer cell lines A549 and HepG2 were maintained in DMEM containing 10% fetal bovine serum (FBS) and 1% penicillin-streptomycin. At passage 7, 10^5 cells/well in DMEM containing 10% FBS were transferred into 96-well plates and cultured for 14 h for the cells to adhere to the wells. The compounds were added to the cells at concentrations ranging from 0.03 to 128 μg/ml. The wells without the compound served as controls. […] After 24 or 48 h, the supernatant was removed and 50 μl of 5-mg/ml 3-(4,5-dimethylthiazol-2-yl)-2,5-diphenyltetrazoliumbromide (MTT) solution in phosphate-buffered saline (PBS) was added to each well. The plates were incubated for an additional 4 h. The formazan crystal formed inside the cell was dissolved by adding 50 μl of dimethyl sulfoxide (DMSO). The optical density was measured at 570 nm.

[10] = test system: A549; assay: In vitro toxicity (MTT), A549; type: cell-based; conditions: Homo sapiens, cytotoxicity
Experimental: as §1

[11] = test system: J774; assay: In vitro toxicity (MTT), J774; type: cell-based, murine; conditions: Mus musculus, cytotoxicity
Experimental: as §1

[12] = in vitro; conditions: mouse, microsomes; for remaining at 0 h, 2 μM: % remaining at 0 min; for remaining at 0.25 h, 2 μM: % remaining at 15 min; for remaining at 0.5 h, 2 μM: % remaining at 30 min; for remaining at 0.75 h, 2 μM: % remaining at 45 min; for remaining at 1 h, 2 μM: % remaining at 60 min
Experimental: as §2

[13] = i.p. 1.2 mg/kg/day, treatment started 5 days after infection
[14] = oral 20 mg/kg/day starting the day of infection
[15] = Cryptococcus neoformans, ChemBridge compounds, Supplementary Table 1, read-out: MIC80
[16] = lowest concentration inhibiting 80% of growth
[17] = oral 20 mg/kg/day, 32 days posttreatment, data not shown

Chain of human ether-a-go-go-related gene (hERG) potassium channel (Q12809 whole entry): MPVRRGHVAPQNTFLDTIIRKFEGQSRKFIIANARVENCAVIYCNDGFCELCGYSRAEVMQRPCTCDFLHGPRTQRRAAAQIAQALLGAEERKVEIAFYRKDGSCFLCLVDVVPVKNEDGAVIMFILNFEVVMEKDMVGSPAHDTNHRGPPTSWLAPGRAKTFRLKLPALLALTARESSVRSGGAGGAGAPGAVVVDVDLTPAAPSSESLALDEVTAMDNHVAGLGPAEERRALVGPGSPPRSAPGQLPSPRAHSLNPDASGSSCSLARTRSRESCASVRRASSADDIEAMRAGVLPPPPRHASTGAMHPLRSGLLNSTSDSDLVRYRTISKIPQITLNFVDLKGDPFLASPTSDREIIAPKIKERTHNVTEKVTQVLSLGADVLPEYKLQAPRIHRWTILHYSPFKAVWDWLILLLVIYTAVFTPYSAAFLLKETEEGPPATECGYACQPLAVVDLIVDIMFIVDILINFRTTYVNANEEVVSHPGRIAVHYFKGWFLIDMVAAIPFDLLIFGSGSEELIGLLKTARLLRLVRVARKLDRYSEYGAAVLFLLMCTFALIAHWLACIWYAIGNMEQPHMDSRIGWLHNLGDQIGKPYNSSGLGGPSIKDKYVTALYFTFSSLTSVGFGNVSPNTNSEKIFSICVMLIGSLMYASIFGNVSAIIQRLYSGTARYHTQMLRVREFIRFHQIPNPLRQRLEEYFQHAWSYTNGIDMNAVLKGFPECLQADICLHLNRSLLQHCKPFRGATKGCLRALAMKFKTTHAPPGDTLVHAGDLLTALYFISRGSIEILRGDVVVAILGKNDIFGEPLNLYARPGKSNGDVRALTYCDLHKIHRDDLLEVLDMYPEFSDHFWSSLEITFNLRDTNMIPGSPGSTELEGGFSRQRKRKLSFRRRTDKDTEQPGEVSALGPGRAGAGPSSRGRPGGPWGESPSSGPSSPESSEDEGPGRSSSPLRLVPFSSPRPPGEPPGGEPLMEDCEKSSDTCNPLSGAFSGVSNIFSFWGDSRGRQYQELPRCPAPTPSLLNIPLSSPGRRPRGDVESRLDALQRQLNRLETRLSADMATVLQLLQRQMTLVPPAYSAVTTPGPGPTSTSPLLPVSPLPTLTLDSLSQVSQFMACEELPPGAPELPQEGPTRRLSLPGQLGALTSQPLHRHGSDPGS

With `Cc1ccccc1C(=O)N/N=C/c1cc(Br)ccc1O` [BHBM, (E)-N′-(3-bromo-6-hydroxybenzylidene)-2-methylbenzohydrazide] the half-life at 2 μM [1] was 0.814 h, the microsomal CLint at 2 μM [1] was 28.4 µL/min/mg and the remaining at 0 h, 2 μM ([1]; with NADPH) was 100%. For the same compound, the remaining at 0 h, 2 μM ([1]; without NADPH) was 100%, the remaining at 0.25 h, 2 μM ([1]; with NADPH) was 83.2% and the remaining at 0.25 h, 2 μM ([1]; without NADPH) was 101%. For the same compound, the remaining at 0.5 h, 2 μM ([1]; with NADPH) was 62.5%, the remaining at 0.5 h, 2 μM ([1]; without NADPH) was 88.5% and the remaining at 0.75 h, 2 μM ([1]; with NADPH) was 51.3%. It also gave a remaining at 0.75 h, 2 μM ([1]; without NADPH) of 81.2%, a remaining at 1 h, 2 μM ([1]; without NADPH) of 82.7% and a Papp at 5 min [2] of 22 ×10⁻⁶ cm/s. It also gave a Papp at 15 min [2] of 9 ×10⁻⁶ cm/s, a Papp at 30 min [2] of 9 ×10⁻⁶ cm/s and a mice that survived ([3]; i.p. 1.2 mg/kg/day) of 50%. The “day by which all mice died” value [3, 13] was no more than 30 days, the “mice that survived until the end of the experiment” value (shortened to “mice that survived until the end”) [3, 14] was 10% and the pIC50 [4] was 4.94. The “Recovery AP→BL” value [5] was 41.88%, the “Recovery BL→AP” value [5] was 39.05% and the Papp A→B at 2 h, 5 μM [6] was 14.3 ×10⁻⁶ cm/s. For the same compound, the Papp B→A at 2 h, 5 μM [6] was 4.71 ×10⁻⁶ cm/s, the recovery at 2 h, 5 μM ([6]; Caco-2, pH 7.4, Recovery AP→BL) was roughly 40% and the recovery at 2 h, 5 μM ([6]; Caco-2, pH 7.4, Recovery BL→AP) was roughly 40%. The MIC80 [7, 15] was 1 µg/mL (≈ 3 µM), the MIC80 [7, 16] was 1 µg/mL (≈ 3 µM) and the “lung fungal burden (CFU) of surviving mice” value [8] was “showed evidence of colonies”. The mice that survived [8] was 30%, the IC50 [9] was 32 µg/mL (≈ 96 µM) and the IC50 [10] was 32 µg/mL (≈ 96 µM). It also gave an IC50 [11] of 16 µg/mL (≈ 48 µM), a half-life at 2 μM [12] of 0.122 h and a microsomal CLint at 2 μM [12] of 189 µL/min/mg. The remaining at 0 h, 2 μM ([12]; with NADPH) was 100%, the remaining at 0 h, 2 μM ([12]; without NADPH) was 100% and the remaining at 0.25 h, 2 μM ([12]; with NADPH) was 25.3%. It also gave a remaining at 0.25 h, 2 μM ([12]; without NADPH) of 109%, a remaining at 0.5 h, 2 μM ([12]; with NADPH) of 4.93% and a remaining at 0.5 h, 2 μM ([12]; without NADPH) of 89.9%. The remaining at 0.75 h, 2 μM ([12]; with NADPH) was 1.52%, the remaining at 0.75 h, 2 μM ([12]; without NADPH) was 86.3% and the remaining at 1 h, 2 μM ([12]; without NADPH) was 84.1%.
In the case of `O=C(N/N=C/c1cc(Br)cc(Br)c1O)c1ccc(Br)cc1` [D13], the half-life at 2 μM [1] was 1.72 h, the microsomal CLint at 2 μM [1] was 13.4 µL/min/mg and the remaining at 0 h, 2 μM ([1]; with NADPH) was 100%. For the same compound, the remaining at 0 h, 2 μM ([1]; without NADPH) was 100%, the remaining at 0.25 h, 2 μM ([1]; with NADPH) was 83.9% and the remaining at 0.25 h, 2 μM ([1]; without NADPH) was 96.5%. The remaining at 0.5 h, 2 μM ([1]; with NADPH) was 73%, the remaining at 0.5 h, 2 μM ([1]; without NADPH) was 86.5% and the remaining at 0.75 h, 2 μM ([1]; with NADPH) was 73.1%. For the same compound, the remaining at 0.75 h, 2 μM ([1]; without NADPH) was 81.9%, the remaining at 1 h, 2 μM ([1]; with NADPH) was roughly 60% and the remaining at 1 h, 2 μM ([1]; without NADPH) was 88.9%. It also gave a Papp at 5 min [2] of 6.8 ×10⁻⁶ cm/s, a Papp at 15 min [2] of 2.2 ×10⁻⁶ cm/s and a Papp at 30 min [2] of 1.1 ×10⁻⁶ cm/s. The mice that survived ([3]; i.p. 1.2 mg/kg/day) was 70%, the “mice that survived until the end” value [3, 13] was 40% and the “mice that survived until the end” value [3, 14] was 50%. For the same compound, the “CFU in brains and lungs” value [3, 17] was “only one D13-treated mouse showed fungal colonies and only in the lung”, the “fungal cells in brains” value [3, 17] was “clear of fungal cells” and the pIC50 [4] was less than 4.52. The Efflux ratio [5] was 1.74, the Papp A→B at 2 h, 5 μM [6] was 0.13 ×10⁻⁶ cm/s and the Papp B→A at 2 h, 5 μM [6] was less than 1 ×10⁻⁶ cm/s. For the same compound, the efflux ratio at 2 h, 5 μM ([6]; Caco-2, pH 7.4, Efflux ratio) was less than 2, the recovery at 2 h, 5 μM ([6]; Caco-2, pH 7.4, Recovery AP→BL) was 49.8% and the recovery at 2 h, 5 μM ([6]; Caco-2, pH 7.4, Recovery BL→AP) was 107%. For the same compound, the MIC80 [7, 15] was 0.06 µg/mL (≈ 0.126 µM), the MIC80 [7, 16] was 0.06 µg/mL (≈ 0.126 µM) and the “lung fungal burden (CFU) of surviving mice” value [8] was “only one D13-treated mouse showed evidence of colonies”. It also gave a mice that survived [8] of 80%, an IC50 [9] greater than 128 µg/mL and an IC50 [10] greater than 128 µg/mL. The IC50 [11] was 16 µg/mL (≈ 33.5 µM), the half-life at 2 μM [12] was 1.48 h and the microsomal CLint at 2 μM [12] was 15.7 µL/min/mg. For the same compound, the remaining at 0 h, 2 μM ([12]; with NADPH) was 100%, the remaining at 0 h, 2 μM ([12]; without NADPH) was 100% and the remaining at 0.25 h, 2 μM ([12]; with NADPH) was 80.8%. It also gave a remaining at 0.25 h, 2 μM ([12]; without NADPH) of 90.7%, a remaining at 0.5 h, 2 μM ([12]; with NADPH) of 69.3% and a remaining at 0.5 h, 2 μM ([12]; without NADPH) of 88.1%. For the same compound, the remaining at 0.75 h, 2 μM ([12]; with NADPH) was 64.6%, the remaining at 0.75 h, 2 μM ([12]; without NADPH) was 82.8% and the remaining at 1 h, 2 μM ([12]; with NADPH) was roughly 60%. The remaining at 1 h, 2 μM ([12]; without NADPH) was 80.8%.
